Paper PMC5330486 (PLoS Biology, 2017)

Target: T1, AsfvPolX (ASFV DNA Polymerase X) (African swine fever virus BA71V, UniProt P42494)
T1 construct: gene Ba71V-97
Test: biochemical
Format: binding
Details: for AsfvPolX: no DNA stated, buffer, metal and temperature not stated

T1 sequence (P42494 whole entry, looked up): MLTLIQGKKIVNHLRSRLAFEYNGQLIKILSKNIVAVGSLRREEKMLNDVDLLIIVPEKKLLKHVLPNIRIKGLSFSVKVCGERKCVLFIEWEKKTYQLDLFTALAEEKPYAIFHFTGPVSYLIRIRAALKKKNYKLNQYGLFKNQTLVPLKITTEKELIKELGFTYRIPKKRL

SMILES	Kd [µM]	also measured
Nc1ncnc2c1ncn2[C@H]1C[C@H](O)[C@@H](COP(=O)(O)OP(=O)(O)OP(=O)(O)O)O1 [dATP]	–	AsfvPolX: 0.66 ± 0.05 µM
Nc1ccn([C@H]2C[C@H](O)[C@@H](COP(=O)(O)OP(=O)(O)OP(=O)(O)O)O2)c(=O)n1 [dCTP]	6.85 ± 0.55	–
Nc1nc2c(ncn2[C@H]2C[C@H](O)[C@@H](COP(=O)(O)OP(=O)(O)OP(=O)(O)O)O2)c(=O)[nH]1 [dGTP]	–	AsfvPolX (structures are ternary complexes with gap(P) DNA and Mn2+): 0.37+0.02 μM
Cc1cn([C@H]2C[C@H](O)[C@@H](COP(=O)(O)OP(=O)(O)OP(=O)(O)O)O2)c(=O)[nH]c1=O [dTTP]	9.09 ± 0.89	–
